Experimental data published in patent publication US11897862B2 (Gilead Sciences, Inc., priority 2022, dated 2024).

Assays:
[1] = molecular target: T1, IKZF1 (Homo sapiens, UniProt Q13422+Q96SW2); assay: HEK293 HiBiT in vitro degradation of IKZF1; format: cell-based; conditions: for DC50: HEK293 HiBiT, 18-24 hr incubation, normalized to DMSO control, read-out: IKZF1 EC50; for Dmax: HEK293, HEK293 HiBiT, maximum degradation at the highest concentration tested
T1 construct: expressed in transfected cells
T1 sequence (Q13422 whole entry): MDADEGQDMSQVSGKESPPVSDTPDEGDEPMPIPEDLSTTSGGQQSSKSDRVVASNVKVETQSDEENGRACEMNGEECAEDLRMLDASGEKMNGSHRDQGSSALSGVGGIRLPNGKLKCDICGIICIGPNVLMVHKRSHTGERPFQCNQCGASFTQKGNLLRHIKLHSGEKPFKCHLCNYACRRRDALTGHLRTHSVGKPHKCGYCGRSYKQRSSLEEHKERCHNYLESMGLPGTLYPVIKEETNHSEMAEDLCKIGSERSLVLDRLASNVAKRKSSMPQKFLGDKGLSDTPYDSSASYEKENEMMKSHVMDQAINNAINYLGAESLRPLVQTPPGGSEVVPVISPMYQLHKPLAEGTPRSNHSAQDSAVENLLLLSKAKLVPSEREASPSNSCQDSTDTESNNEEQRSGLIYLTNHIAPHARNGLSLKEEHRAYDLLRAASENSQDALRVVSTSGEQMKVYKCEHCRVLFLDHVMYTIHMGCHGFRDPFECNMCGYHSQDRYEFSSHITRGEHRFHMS
T1 sequence (Q96SW2 whole entry): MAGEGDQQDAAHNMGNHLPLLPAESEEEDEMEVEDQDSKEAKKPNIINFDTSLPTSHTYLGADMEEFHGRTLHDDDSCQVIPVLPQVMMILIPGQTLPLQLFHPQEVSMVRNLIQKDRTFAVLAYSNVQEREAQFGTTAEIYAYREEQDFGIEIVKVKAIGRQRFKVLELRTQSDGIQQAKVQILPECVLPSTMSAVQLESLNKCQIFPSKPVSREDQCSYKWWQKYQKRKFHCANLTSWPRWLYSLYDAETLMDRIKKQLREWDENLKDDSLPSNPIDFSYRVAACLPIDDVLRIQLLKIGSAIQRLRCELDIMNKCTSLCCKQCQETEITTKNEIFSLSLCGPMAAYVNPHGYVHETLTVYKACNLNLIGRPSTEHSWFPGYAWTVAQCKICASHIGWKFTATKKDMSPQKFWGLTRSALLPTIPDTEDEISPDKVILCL
T1 sequence (Q16531 whole entry partner): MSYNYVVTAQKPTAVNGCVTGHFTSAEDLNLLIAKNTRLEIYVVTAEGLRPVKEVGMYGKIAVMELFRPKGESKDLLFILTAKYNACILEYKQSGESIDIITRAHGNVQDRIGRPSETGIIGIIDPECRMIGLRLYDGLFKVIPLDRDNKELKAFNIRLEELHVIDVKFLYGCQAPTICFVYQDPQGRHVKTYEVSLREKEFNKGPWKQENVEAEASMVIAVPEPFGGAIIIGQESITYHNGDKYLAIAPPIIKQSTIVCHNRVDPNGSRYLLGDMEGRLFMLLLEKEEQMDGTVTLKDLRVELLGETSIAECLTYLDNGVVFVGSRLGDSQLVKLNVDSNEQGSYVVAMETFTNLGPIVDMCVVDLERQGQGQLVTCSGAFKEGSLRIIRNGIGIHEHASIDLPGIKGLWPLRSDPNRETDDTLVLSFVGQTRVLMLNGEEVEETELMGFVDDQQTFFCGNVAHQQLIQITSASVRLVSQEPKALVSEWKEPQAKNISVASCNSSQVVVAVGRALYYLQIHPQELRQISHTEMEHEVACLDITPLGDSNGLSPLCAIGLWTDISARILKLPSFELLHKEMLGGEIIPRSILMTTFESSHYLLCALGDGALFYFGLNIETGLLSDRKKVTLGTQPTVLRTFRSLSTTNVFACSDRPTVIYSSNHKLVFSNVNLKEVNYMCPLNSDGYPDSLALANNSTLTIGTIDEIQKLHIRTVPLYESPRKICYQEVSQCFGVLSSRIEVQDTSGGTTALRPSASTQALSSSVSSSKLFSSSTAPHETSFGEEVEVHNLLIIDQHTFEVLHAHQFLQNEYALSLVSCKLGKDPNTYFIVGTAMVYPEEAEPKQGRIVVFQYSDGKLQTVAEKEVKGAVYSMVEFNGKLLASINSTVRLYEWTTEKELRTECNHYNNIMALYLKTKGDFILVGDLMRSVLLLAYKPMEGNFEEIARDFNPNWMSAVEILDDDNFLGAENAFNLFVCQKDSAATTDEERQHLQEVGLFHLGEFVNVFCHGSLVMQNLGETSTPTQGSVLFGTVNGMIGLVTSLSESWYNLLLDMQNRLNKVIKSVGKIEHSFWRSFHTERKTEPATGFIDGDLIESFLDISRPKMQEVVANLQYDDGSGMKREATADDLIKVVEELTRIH
Outline: (§1)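 Degradation was scored as loss of HiBiT signal from C-terminally tagged IKZF1, IKZF2 or SALL4 in doxycycline-induced Flp-In T-REx HEK293 cells after overnight (18-24 h) compound treatment. EC50 and Dmax were derived from the luminescence.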

[2] = molecular target: IKZF2 (Homo sapiens, UniProt Q96SW2+Q9UKS7); assay: HEK293 HiBiT in vitro degradation of IKZF2; format: cell-based; parameters: expressed in transfected cells; conditions: for Dmax: HEK293, HEK293 HiBiT, maximum degradation at the highest concentration tested; for DC50: HEK293 HiBiT, 18-24 hr incubation, normalized to DMSO control, read-out: IKZF2 EC50
IKZF2, sequence (Q9UKS7 1-500 isoform Q9UKS7-2): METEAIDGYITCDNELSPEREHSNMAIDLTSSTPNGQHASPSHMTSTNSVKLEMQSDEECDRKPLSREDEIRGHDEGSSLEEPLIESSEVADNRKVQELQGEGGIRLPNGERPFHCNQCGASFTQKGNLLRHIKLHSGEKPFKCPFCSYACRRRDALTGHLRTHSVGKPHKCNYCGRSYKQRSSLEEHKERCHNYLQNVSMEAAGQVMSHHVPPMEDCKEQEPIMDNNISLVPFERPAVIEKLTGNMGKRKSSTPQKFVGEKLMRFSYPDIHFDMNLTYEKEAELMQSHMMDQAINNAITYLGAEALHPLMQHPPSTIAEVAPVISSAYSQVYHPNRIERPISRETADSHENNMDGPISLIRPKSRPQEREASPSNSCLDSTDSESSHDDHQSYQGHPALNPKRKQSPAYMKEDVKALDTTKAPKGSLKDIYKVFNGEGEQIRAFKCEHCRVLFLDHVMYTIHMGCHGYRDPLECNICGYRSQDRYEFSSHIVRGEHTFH
IKZF2, sequence (Q96SW2 whole entry): as the sequence (Q96SW2 whole entry) above
IKZF2, sequence (Q16531 whole entry partner): as the sequence (Q16531 whole entry partner) above
Outline: as §1

Compound | DC50 [1] [nM] | Dmax [2] [%] | DC50 [2] [nM] | Dmax [1] [%]
COc1ccc(CN[C@H]2CCCC[C@@H]2Cc2ccc3c(c2)CN(C2CCC(=O)NC2=O)C3=O)cc1 (stereo partly drawn) [Example 14, 3-(5-(((1R,2S)-2-((4-methoxybenzyl)amino)cyclohexyl)methyl)-1-oxoisoindolin-2-yl)piperidine-2,6-dione] | > 1000 | 88 | 27 | –
O=C1CCC(N2Cc3cc(C[C@H]4CCCC[C@@H]4NCc4cc(F)cc(F)c4)ccc3C2=O)C(=O)N1 (stereo partly drawn) [Example 15, 3-(5-(((1R,2S)-2-((3,5-difluorobenzyl)amino)cyclohexyl)methyl)-1-oxoisoindolin-2-yl)piperidine-2,6-dione] | > 1000 | 95 | 20 | –
O=C1CCC(N2Cc3cc(C[C@H]4CCCC[C@@H]4NCc4ccc(C(F)(F)F)cc4)ccc3C2=O)C(=O)N1 (stereo partly drawn) [Example 16, 3-(1-oxo-5-(((1R,2S)-2-((4-(trifluoromethyl)benzyl)amino)cyclohexyl)methyl)isoindolin-2-yl)piperidine-2,6-dione] | > 1000 | 87 | 42 | –
N#Cc1ccc(CN[C@H]2CCCC[C@@H]2Cc2ccc3c(c2)CN(C2CCC(=O)NC2=O)C3=O)c(F)c1 (stereo partly drawn) [Example 17, 4-((((1S,2R)-2-((2-(2,6-dioxopiperidin-3-yl)-1-oxoisoindolin-5-yl)methyl)cyclohexyl)amino)methyl)-3-fluorobenzonitrile] | > 1000 | 77 | 70 | –
O=C1CCC(N2Cc3cc(C[C@H]4CCCC[C@@H]4NCc4c(F)cccc4F)ccc3C2=O)C(=O)N1 (stereo partly drawn) [Example 18, 3-(5-(((1R,2S)-2-((2,6-difluorobenzyl)amino)cyclohexyl)methyl)-1-oxoisoindolin-2-yl)piperidine-2,6-dione] | > 1000 | 89 | 42 | –
O=C1CCC(N2Cc3cc(C[C@H]4CCCC[C@@H]4NCc4ccc(F)cc4F)ccc3C2=O)C(=O)N1 (stereo partly drawn) [Example 19, 3-(5-(((1R,2S)-2-((2,4-difluorobenzyl)amino)cyclohexyl)methyl)-1-oxoisoindolin-2-yl)piperidine-2,6-dione] | > 1000 | 89 | 30 | –
N#Cc1ccc(CN[C@H]2CCCC[C@@H]2Cc2ccc3c(c2)CN(C2CCC(=O)NC2=O)C3=O)cc1 (stereo partly drawn) [Example 20, 4-((((1S,2R)-2-((2-(2,6-dioxopiperidin-3-yl)-1-oxoisoindolin-5-yl)methyl)cyclohexyl)amino)methyl)benzonitrile] | 99 | 94 | 19 | 35
CN(Cc1ccccc1)[C@H]1CCCC[C@@H]1Cc1ccc2c(c1)CN(C1CCC(=O)NC1=O)C2=O (stereo partly drawn) [Example 21, 3-(5-(((1R,2S)-2-(benzyl(methyl)amino)cyclohexyl)methyl)-1-oxoisoindolin-2-yl)piperidine-2,6-dione] | > 1000 | 49 | 409 | –
O=C1CCC(N2Cc3cc(C[C@H]4CCCC[C@@H]4NCc4cc(F)ccc4F)ccc3C2=O)C(=O)N1 (stereo partly drawn) [Example 22, 3-(5-(((1R,2S)-2-((2,5-difluorobenzyl)amino)cyclohexyl)methyl)-1-oxoisoindolin-2-yl)piperidine-2,6-dione] | > 1000 | 86 | 34 | –
[2H]c1c([2H])c([2H])c(CN(Cc2c([2H])c([2H])c([2H])c([2H])c2[2H])[C@H]2CCCC[C@@H]2Cc2ccc3c(c2)CN(C2CCC(=O)NC2=O)C3=O)c([2H])c1[2H] (stereo partly drawn) [Example 26, 3-(5-(((1R,2S)-2-(bis((phenyl-d5)methyl)amino)cyclohexyl)methyl)-1-oxoisoindolin-2-yl)piperidine-2,6-dione] | > 1000 | 57 | 530 | –
CC1(C)CCC(N[C@H]2CCCC[C@@H]2Cc2ccc3c(c2)CN(C2CCC(=O)NC2=O)C3=O)CC1 (stereo partly drawn) [Example 27, 3-(5-(((1R,2S)-2-((4,4-dimethylcyclohexyl)amino)cyclohexyl)methyl)-1-oxoisoindolin-2-yl)piperidine-2,6-dione] | 70 | 97 | 3 | 27
O=C1CCC(N2Cc3cc(C[C@H]4CCCC[C@@H]4NC4CC5CC(C5)C4)ccc3C2=O)C(=O)N1 (stereo partly drawn) [Example 29, 3-(5-(((1R,2S)-2-(bicyclo[3.1.1]heptan-3-ylamino)cyclohexyl)methyl)-1-oxoisoindolin-2-yl)piperidine-2,6-dione] | 574 | 96 | 5 | 39
O=C1CCC(N2Cc3cc(C[C@H]4CCCC[C@@H]4N4CC(Oc5ccccc5Cl)C4)ccc3C2=O)C(=O)N1 (stereo partly drawn) [Example 30, 3-(5-(((1R,2S)-2-(3-(2-chlorophenoxy)azetidin-1-yl)cyclohexyl)methyl)-1-oxoisoindolin-2-yl)piperidine-2,6-dione] | 42 | 81 | 29 | 34
CCOC1CN([C@H]2CCCC[C@@H]2Cc2ccc3c(c2)CN(C2CCC(=O)NC2=O)C3=O)C1 (stereo partly drawn) [Example 31, 3-(5-(((1R,2S)-2-(3-ethoxyazetidin-1-yl)cyclohexyl)methyl)-1-oxoisoindolin-2-yl)piperidine-2,6-dione] | > 1000 | 85 | 30 | –
O=C1CCC(N2Cc3cc(C[C@H]4CCCC[C@@H]4N4CC(Oc5ccccc5)C4)ccc3C2=O)C(=O)N1 (stereo partly drawn) [Example 32, 3-(1-oxo-5-(((1R,2S)-2-(3-phenoxyazetidin-1-yl)cyclohexyl)methyl)isoindolin-2-yl)piperidine-2,6-dione] | > 1000 | 90 | 21 | –
O=C1CCC(N2Cc3cc(C[C@H]4CCCC[C@@H]4N4CC(OCc5ccccc5)C4)ccc3C2=O)C(=O)N1 (stereo partly drawn) [Example 33, 3-(5-(((1R,2S)-2-(3-(benzyloxy)azetidin-1-yl)cyclohexyl)methyl)-1-oxoisoindolin-2-yl)piperidine-2,6-dione] | > 1000 | 82 | 18 | –
O=C1CCC(N2Cc3cc(C[C@H]4CCCC[C@@H]4N4CC5(CN(Cc6ccccc6Cl)C5)C4)ccc3C2=O)C(=O)N1 (stereo partly drawn) [Example 34, 3-(5-(((1R,2S)-2-(6-(2-chlorobenzyl)-2,6-diazaspiro[3.3]heptan-2-yl)cyclohexyl)methyl)-1-oxoisoindolin-2-yl)piperidine-2,6-dione] | 51 | 80 | 28 | 29

Further lines, results first:

DC50 [1] [nM] | Dmax [2] [%] | DC50 [2] [nM] | Dmax [1] [%] | Compound
101 | 89 | 46 | 33 | O=C1CCC(N2Cc3cc(C[C@H]4CCCC[C@@H]4NCc4cscn4)ccc3C2=O)C(=O)N1 (stereo partly drawn) [Example 36, 3-(1-oxo-5-(((1R,2S)-2-((thiazol-4-ylmethyl)amino)cyclohexyl)methyl)isoindolin-2-yl)piperidine-2,6-dione]
> 1000 | 69 | 172 | – | O=C1CCC(N2Cc3cc(C[C@H]4CCCC[C@@H]4NCc4nccs4)ccc3C2=O)C(=O)N1 (stereo partly drawn) [Example 37, 3-(1-oxo-5-(((1R,2S)-2-((thiazol-2-ylmethyl)amino)cyclohexyl)methyl)isoindolin-2-yl)piperidine-2,6-dione]
> 1000 | 97 | 192 | – | Cn1ccc(CN[C@H]2CCCC[C@@H]2Cc2ccc3c(c2)CN(C2CCC(=O)NC2=O)C3=O)n1 (stereo partly drawn) [Example 38, 3-(5-(((1R,2S)-2-(((1-methyl-1H-pyrazol-3-yl)methyl)amino)cyclohexyl)methyl)-1-oxoisoindolin-2-yl)piperidine-2,6-dione]
265 | 86 | 47 | 34 | Cn1nccc1CN[C@H]1CCCC[C@@H]1Cc1ccc2c(c1)CN(C1CCC(=O)NC1=O)C2=O (stereo partly drawn) [Example 39, 3-(5-(((1R,2S)-2-(((1-methyl-1H-pyrazol-5-yl)methyl)amino)cyclohexyl)methyl)-1-oxoisoindolin-2-yl)piperidine-2,6-dione]
> 1000 | 81 | 45 | – | O=C1CCC(N2Cc3cc(C[C@H]4CCCC[C@@H]4NCc4ccncc4)ccc3C2=O)C(=O)N1 (stereo partly drawn) [Example 40, 3-(1-oxo-5-(((1R,2S)-2-((pyridin-4-ylmethyl)amino)cyclohexyl)methyl)isoindolin-2-yl)piperidine-2,6-dione]
216 | 90 | 24 | 44 | O=C1CCC(N2Cc3cc(C[C@H]4CCCC[C@@H]4NCc4cccnc4)ccc3C2=O)C(=O)N1 (stereo partly drawn) [Example 41, 3-(1-oxo-5-(((1R,2S)-2-((pyridin-3-ylmethyl)amino)cyclohexyl)methyl)isoindolin-2-yl)piperidine-2,6-dione]
> 1000 | 78 | 126 | – | Cn1cc(CN[C@H]2CCCC[C@@H]2Cc2ccc3c(c2)CN(C2CCC(=O)NC2=O)C3=O)cn1 (stereo partly drawn) [Example 42, 3-(5-(((1R,2S)-2-(((1-methyl-1H-pyrazol-4-yl)methyl)amino)cyclohexyl)methyl)-1-oxoisoindolin-2-yl)piperidine-2,6-dione]
> 1000 | 45 | 91 | – | O=C1CCC(N2Cc3cc(C[C@H]4CCCC[C@@H]4NCc4c(F)cncc4F)ccc3C2=O)C(=O)N1 (stereo partly drawn) [Example 43, 3-(5-(((1R,2S)-2-(((3,5-difluoropyridin-4-yl)methyl)amino)cyclohexyl)methyl)-1-oxoisoindolin-2-yl)piperidine-2,6-dione]
> 1000 | 60 | 67 | – | O=C1CCC(N2Cc3cc(C[C@H]4CCCC[C@@H]4NCc4ncc(F)cc4F)ccc3C2=O)C(=O)N1 (stereo partly drawn) [Example 44, 3-(5-(((1R,2S)-2-(((3,5-difluoropyridin-2-yl)methyl)amino)cyclohexyl)methyl)-1-oxoisoindolin-2-yl)piperidine-2,6-dione]
